Measurements from US10519162B2, “6,7-dihydropyrazolo[1,5-α]pyrazin-4(5H)-one compounds and their use as negative allosteric modulators of mGluR2 receptors” (Janssen Pharmaceutica NV, priority 2014, dated 2019).

Columns and labels:
Male Wiga Wistar rats = assay: Reversal of LY-404039-induced decrease of palpebral opening in apomorphine-challenged rats (APO LY-404039); assay type: in vivo, rat; conditions: for ED50: Rattus norvegicus, PO (oral route), apomorphine challenged rats
Protocol: B) In Vivo Pharmacology 1) Reversal of LY-404039-Induced Decrease of Palpebral Opening in Apomorphine-Challenged Rats.
Male Wiga Wistar rats (Crl:WI; Charles River Germany; 220±40 g) were housed under standard laboratory conditions (21±2° C.; 50-65% relative humidity; light-dark cycle set at 12 h; lights on at 6.00 h) and fasted overnight prior to the start of the experiments (tap water remained available ad libitum). During the test period, they were housed in individual cages. Palpebral opening was scored every 5 min over the first hour after injection of apomorphine (1.0 mg/kg, i.v.) in animals either pretreated or not pretreated with LY-404039 (2.5 mg/kg, s.c.) at 1 h prior to the apomorphine injection. The animals were also pretreated with test compound or solvent at a predefined interval before apomorphine challenge. The score system was: (5) exophthalmos, (4) wide open, (3) open for three-quarters, (2) half open, (1) open for one-quarter, (0) closed. The scores for palpebral opening were cumulated over the 60-min observation period.
In animals receiving apomorphine alone the median palpebral opening is 43 whereas in animals receiving apomorphine and LY-404039, the median palpebral opening is 17.

human mGlu2 receptor = target: T1, human mGlu2 receptor (Homo sapiens, UniProt Q14416); assay: [35S]GTPγS binding assay (mGluR2 negative allosteric modulation, glutamate ~EC80 60 μM); assay type: biochemical; conditions: for Emax / GTPγS-hmGluR2 anGT Emax: maximal % inhibition relative to the control glutamate response (EC80 glutamate); for Emax: read-out: GTPγS-hmGluR2 anGT Emax; for IC50: membranes from CHO cells transfected with human mGlu2 receptor, glutamate ~EC80 (60 μM), pIC50 = −log IC50 (M), read-out: GTPγS-hmGluR2 anGT pIC50 (converted)
T1 construct: expressed in transfected cells; host or cells: CHO cells
T1 sequence (Q14416 19-872): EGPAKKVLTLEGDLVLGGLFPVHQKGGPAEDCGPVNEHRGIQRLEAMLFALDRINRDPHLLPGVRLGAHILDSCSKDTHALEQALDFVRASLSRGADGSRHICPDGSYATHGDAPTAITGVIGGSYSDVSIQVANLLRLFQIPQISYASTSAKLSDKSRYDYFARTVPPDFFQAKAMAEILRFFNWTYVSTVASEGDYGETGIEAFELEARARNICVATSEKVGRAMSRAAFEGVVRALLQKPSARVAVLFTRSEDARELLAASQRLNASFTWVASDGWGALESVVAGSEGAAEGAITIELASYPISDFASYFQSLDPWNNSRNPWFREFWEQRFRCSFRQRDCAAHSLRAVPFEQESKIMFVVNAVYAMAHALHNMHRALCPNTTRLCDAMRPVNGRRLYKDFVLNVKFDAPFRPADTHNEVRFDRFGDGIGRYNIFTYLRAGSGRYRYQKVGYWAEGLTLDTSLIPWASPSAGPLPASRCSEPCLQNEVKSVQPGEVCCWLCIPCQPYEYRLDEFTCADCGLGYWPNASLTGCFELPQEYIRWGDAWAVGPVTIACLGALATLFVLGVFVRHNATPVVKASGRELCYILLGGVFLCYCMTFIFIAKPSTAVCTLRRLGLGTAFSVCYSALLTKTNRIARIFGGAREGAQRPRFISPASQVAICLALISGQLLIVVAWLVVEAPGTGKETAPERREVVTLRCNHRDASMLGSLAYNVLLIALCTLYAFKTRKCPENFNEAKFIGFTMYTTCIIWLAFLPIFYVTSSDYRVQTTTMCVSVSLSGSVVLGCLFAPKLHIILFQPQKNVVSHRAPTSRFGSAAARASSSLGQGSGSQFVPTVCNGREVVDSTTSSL
Protocol: 1) [^35S]GTPγS Binding Assay
[^35S]GTPγS Binding Assay
Total reaction volume was 200 μl. […] Membrane-bound radioactivity was counted in a Topcount.

rats = assay: Reversal of the effect of the mGluR2 PAM JNJ-42153605-induced inhibition of scopolamine-induced hyperlocomotion (SCOP JNJ-42153605); assay type: in vivo, rat; conditions: Rattus norvegicus; PO (oral route); rats; reversal criterion total distance >1500 cm
Procedure, shortened: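 Rats got test compound or vehicle 60 min pre-recording, JNJ-42153605 (20 mg/kg, i.v.) 30 min pre-recording, then scopolamine (0.16 mg/kg, i.v.) just before. Total distance over the first 30 min was video-tracked; all-or-none reversal criterion: total distance >1500 cm.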

Wiga rats = assay: Induction of mydriasis (MYD); assay type: in vivo; conditions: Rattus norvegicus, PO (oral route), pupil diameter >25 units, 1-3 h post-administration
Protocol: 3) Induction of Mydriasis
The pupil diameter of Wiga rats was measured with a microscopic micrometer (1 unit=1/24 mm). Criteria for drug-induced effects: pupil diameter >25 units for mydriasis (in controls: 1.9%) 1, 2 or 3 h post-administration of the test compound (wherein the maximum pupil diameter over the full 3 h period is reported).

[1] = control animals, cumulative score over 60 min

Emax (human mGlu2 receptor) [%]	IC50 (human mGlu2 receptor) [M]	melting point [°C]	GTPγS-hmGluR2 anGT Emax (human mGlu2 receptor) [%]	Compound	ED50 (Male Wiga Wistar rats) [mg/kg]	ED50 (rats) [mg/kg]	ED50 (Wiga rats) [mg/kg]	Palpebral opening score, occurrence score > 26 (%) (Male Wiga Wistar rats; [1])	Palpebral opening score, occurrence score > 34 (%) (Male Wiga Wistar rats; [1])	Palpebral opening score, median score (Male Wiga Wistar rats; control animals, scores cumulated over 60 min after apomorphine 1.0 mg/kg i.v., LY-404039 2.5 mg/kg s.c. 1 h before)
106	1.66e-09	202.24		Cc1cc(N2C[C@H](C)n3ncc(NC(=O)c4ccc(N)nc4)c3C2=O)ccc1C(F)(F)F [Co. No. 4]	1.26	0.5				
104	2.29e-09	108.41		Cc1cc(C(=O)Nc2cnn3c2C(=O)N(c2ccc(Cl)c(Cl)c2)C[C@@H]3C)ccn1 [Co. No. 171]	> 0.63	> 0.63				
	6.31e-09	225.94	114	COCC1CN(c2ccc(C(F)(F)F)cc2)C(=O)c2c(NC(=O)c3ccc(N)nc3)cnn21 (single isomer, unassigned) [Co. No. 95]	> 2.5	1.26				
109	1.51e-09	277.76		Cc1cc(C(=O)Nc2cnn3c2C(=O)N(c2ccc(C(F)(F)F)cc2)C[C@@H]3C)cnc1N (racemic) [Co. No. 187]		0.0794	> 10			
110	1.32e-09			Cc1cc(C(=O)Nc2cnn3c2C(=O)N(c2ccc(C(F)(F)F)c(Cl)c2)C[C@@H]3C)cc(C)n1 [Co. No. 172]		0.32	> 40			
	1.26e-08	162.59	111	COCC1CN(c2ccc(C(F)(F)F)cc2)C(=O)c2c(NC(=O)c3ccccc3F)cnn21 (single isomer, unassigned) [Co. No. 62a]	> 2.5	> 2.5				
109	2.63e-09	188.46		C[C@H]1CN(c2ccc(OC(F)(F)F)cc2)C(=O)c2c(NC(=O)c3cccnc3N)cnn21 [Co. No. 196]		0.32	> 10			
110	2.75e-09	154.26		Cc1cc(C(=O)Nc2cnn3c2C(=O)N(c2ccc(C(F)(F)F)cc2)C[C@@H]3C)cc(C)n1 [Co. No. 93]	0.79	0.5				
108	1.07e-09	186.11		Cc1cc(C(=O)Nc2cnn3c2C(=O)N(c2ccc(Cl)c(Cl)c2)C[C@@H]3C)cc(C)n1 [Co. No. 106]	> 0.63	> 0.63				
105	4.57e-09	120.33		Cc1cc(N2C[C@H](C)n3ncc(NC(=O)c4cccnc4)c3C2=O)ccc1C(F)(F)F [Co. No. 145]	0.5	> 0.63	6.6			
107	2.14e-09	159.96		Cc1cc(C(=O)Nc2cnn3c2C(=O)N(c2ccc(C(F)(F)F)c(Cl)c2)C[C@@H]3C)ccn1 [Co. No. 12]	0.42	0.32	21.5			
105	1.48e-08	125.45		C[C@H]1CN(c2ccc(OC(F)(F)F)cc2)C(=O)c2c(NC(=O)c3cccnc3)cnn21 [Co. No. 178]		0.318	> 10			
105	8.51e-09	166.06		C[C@H]1CN(c2ccc(C(F)(F)F)c(F)c2)C(=O)c2c(NC(=O)c3cccnc3)cnn21 [Co. No. 148]	> 0.63	> 0.63				
109	1.82e-09	214.96		C[C@H]1CN(c2ccc(C(F)(F)F)cc2)C(=O)c2c(NC(=O)c3cccnc3N)cnn21 [Co. No. 189]		0.2	> 10			
113	1.07e-09	193.17		C[C@H]1CN(c2ccc(Cl)c(Cl)c2)C(=O)c2c(NC(=O)c3cccnc3N)cnn21 [Co. No. 185]		0.08	> 10			
106	2.19e-09	157.47		C[C@H]1CN(c2ccc(C(F)(F)F)c(Cl)c2)C(=O)c2c(NC(=O)c3cccnc3)cnn21 [Co. No. 100]		0.8	> 2.5			
110	7.08e-10	142.58		C[C@H]1CN(c2ccc(C(F)(F)F)c(Cl)c2)C(=O)c2c(NC(=O)c3cccnc3N)cnn21 [Co. No. 182]		0.0985	> 10			
108	3.16e-09	205.19		C[C@H]1CN(c2ccc(S(F)(F)(F)(F)F)cc2)C(=O)c2c(NC(=O)c3cccnc3)cnn21 [Co. No. 175]		0.318	> 10			
110	1.23e-09	175.63		Cc1cc(N2C[C@H](C)n3ncc(NC(=O)c4cccnc4N)c3C2=O)ccc1C(F)(F)F [Co. No. 184]		0.2	> 10			
109	1.82e-09	145.92		Cc1ccncc1C(=O)Nc1cnn2c1C(=O)N(c1ccc(C(F)(F)F)c(Cl)c1)C[C@@H]2C [Co. No. 120]	> 0.63	> 0.63				
107	1.82e-09	201.39		C[C@H]1CN(c2ccc(Cl)c(Cl)c2)C(=O)c2c(NC(=O)c3cnccn3)cnn21 [Co. No. 104]		0.32	6.6			
108	1.7e-09	230.53		C[C@H]1CN(c2ccc(C(F)(F)F)c(Cl)c2)C(=O)c2c(NC(=O)c3cnccn3)cnn21 [Co. No. 176]		0.32	> 10			
				CN1CCc2cccc3c2[C@H]1Cc1ccc(O)c(O)c1-3 [Apomorphine alone, apomorphine, reference compound]				99.5	95.9	43
109	2.63e-09	207.25		C[C@H]1CN(c2ccc(C(F)(F)F)c(F)c2)C(=O)c2c(NC(=O)c3ccc(N)nc3)cnn21 [Co. No. 13]	0.2	0.32				
107	2.04e-09	164.61		Cc1cc(C(=O)Nc2cnn3c2C(=O)N(c2ccc(C(F)(F)F)c(C)c2)C[C@@H]3C)cc(C)n1 [Co. No. 113]		0.5	> 40			
112	1.95e-09	222.34		Cc1cnc(N)c(C(=O)Nc2cnn3c2C(=O)N(c2ccc(C(F)(F)F)cc2)C[C@@H]3C)c1 [Co. No. 191]		0.318	> 10			
105	1.32e-09	161.54		C[C@H]1CN(c2ccc(C(F)(F)F)c(Cl)c2)C(=O)c2c(NC(=O)c3ccccc3)cnn21 [Co. No. 2]		> 2.5				
108	1.32e-09	190.13		Cc1cnc(N)c(C(=O)Nc2cnn3c2C(=O)N(c2ccc(C(F)(F)F)c(C)c2)C[C@@H]3C)c1 [Co. No. 197]		0.13	> 10			
112	7.41e-09	174.59		COc1cncc(C(=O)Nc2cnn3c2C(=O)N(c2ccc(C(F)(F)F)cc2)C[C@@H]3C)c1 [Co. No. 32]		1.26				
